According to patent publication US12329158B2, “Large-scale methods of uniformly coating packaging surfaces with a volatile antimicrobial to preserve food freshness” (AGROFRESH INC., priority 2013, dated 2025):
≈ marks a conversion by molar mass, not a printed value.

Experiments:
Botrytis cinerea [1] = assay: In-clamshell Compound A applied by painting, spraying or sublimation; strawberries (Example 1); assay type: in vivo; details: 5 mg/clamshell
Procedure: An in vivo assay was used to evaluate the ability of Compound A to volatilize from a clamshell chamber and control pathogenic infection when applied by various techniques. Multiple empty 1-lb PET clamshells (ProducePackaging.com, #036QT) were placed inside triplicate air-tight 36 L chamber (Fisher Scientific, Catalogue #08-642-23C) fitted with a bulkhead septum port (Swagelok, SS-401-61, Solon, OH).
Compound A headspace was permitted to equilibrate overnight at 21° C.
(§1) Five milligrams of Compound A was dissolved in 1 ml of ethanol prior to being uniformly administered to the interior of the clamshell by painting or spraying, and then dried for 5 minutes. After coating the clamshells with Compound A using various application techniques (i.e., sublimation, spraying, or painting), eight ethanol-washed strawberries were placed in the clamshell with stem end facing downwards. Each strawberry fruit was wounded using a T15 screwdriver tip to a uniform depth of eight mm (8 mm). […] Uninoculated strawberries were removed from their commercial package, and directly transferred into treated clamshells without any washing or inoculation steps.
(§2) Treated clamshells lids were closed, and then placed at 1° C. for an initial time period of 5 days. Clamshells were then removed from low temperature, and held for a second time period of 6 days at room temperature where the point of inoculation on the strawberry fruits was assessed for indication of disease incidence reported as a percentage (%). Severity of disease incidence was also reported.

Botrytis cinerea [2] = assay: Clamshells treated by sublimation; strawberries (Example 5); assay type: in vivo; details: 5 mg
Procedure: as §1, §2
This in vivo assay was used to evaluate the ability of Compound A to volatilize from a clamshell in order to control or inhibit fruit infection by pathogenic microorganism, Botrytis cinerea. This experiment was conducted exactly as described in Example 1, with a few exceptions. After equilibrating the clamshell overnight at 21° C., Compound A was administered to the clamshell by sublimation only. Compound A was sublimed onto the surface of the clamshell at a final treatment rate of 5 mg/clamshell. Strawberries were inoculated with Botrytis cinerea, placed within the clamshell for an initial time period of 6 days, and assessed for disease incidence and severity over a second time period of 7 days as described in Example 1.

Alternaria alternata = assay: Volatile MIC assay (Example 9); assay type: cell-based; details: 72 h, headspace concentration, 3 days at 23 C, read-out: MIC (mg/L) ALTEAL
Procedure: (§3) A 3-mL volume of full-strength Potato Dextrose Agar (PDA) is added to each well. […] Plates are inoculated immediately prior to volatile fungicide treatment. A Whatman #1 filter disk (Cat. No. 1001-0155) is placed, in duplicate, on the underside of a polyethylene PCR plate sealing film. […] The acetone is permitted to evaporate for 5 minutes. The headspace around the inoculum is then sealed inside the well by the film with the adhering disk containing the fungicide by inverting the plates over the treated disks and sealing to prevent any of the chemical from flaking from the disk and falling onto the inoculated agar.

Botrytis cinerea [3] = assay: Volatile MIC assay (Example 9); assay type: cell-based; details: 72 h, headspace concentration, 3 days at 23 C, read-out: MIC (mg/L) BOTRCI
Procedure: as §3

Glomerella cingulata = assay: Volatile MIC assay (Example 9); assay type: cell-based; details: Colletotrichum gloeosporioides, 72 h, headspace concentration, 3 days at 23 C, read-out: MIC (mg/L) GLOMCI
Procedure: as §3

Monilinia fructicola = assay: Volatile MIC assay (Example 9); assay type: cell-based; details: 72 h, headspace concentration, 3 days at 23 C, read-out: MIC (mg/L) MONIFC
Procedure: as §3

Penicillium expansum = assay: Volatile MIC assay (Example 9); assay type: cell-based; details: 72 h, headspace concentration, 3 days at 23 C, read-out: MIC (mg/L) PENIEX
Procedure: as §3

In the case of `OB1OCc2cc(F)ccc21` [Compound A, 5-fluoro-1,3-dihydro-1-hydroxy-2,1-benzoxaborole], the “Gray Mold Incidence (%)” value (Botrytis cinerea [1]; Inoculated Fruit, Paint, Day 0) is reported as 0.0%, the “Gray Mold Incidence (%)” value (Botrytis cinerea [1]; Inoculated Fruit, Paint, Day 1) is reported as 0.0% and the “Gray Mold Incidence (%)” value (Botrytis cinerea [1]; Inoculated Fruit, Paint, Day 2) is reported as 0.0%. The “Gray Mold Incidence (%)” value (Botrytis cinerea [1]; Inoculated Fruit, Paint, Day 3) was 0.0%, the “Gray Mold Incidence (%)” value (Botrytis cinerea [1]; Inoculated Fruit, Paint, Day 4) was 0.0% and the “Gray Mold Incidence (%)” value (Botrytis cinerea [1]; Inoculated Fruit, Paint, Day 5) was 0.0%. The “Gray Mold Incidence (%)” value (Botrytis cinerea [1]; Inoculated Fruit, Paint, Day 6) was 0.0%, the “Gray Mold Incidence (%)” value (Botrytis cinerea [1]; Inoculated Fruit, Spray, Day 0) was 0.0% and the “Gray Mold Incidence (%)” value (Botrytis cinerea [1]; Inoculated Fruit, Spray, Day 1) was 0.0%. For the same molecule, the “Gray Mold Incidence (%)” value (Botrytis cinerea [1]; Inoculated Fruit, Spray, Day 2) was 0.0%, the “Gray Mold Incidence (%)” value (Botrytis cinerea [1]; Inoculated Fruit, Spray, Day 3) was 0.0% and the “Gray Mold Incidence (%)” value (Botrytis cinerea [1]; Inoculated Fruit, Spray, Day 4) was 0.0%. For the same molecule, the “Gray Mold Incidence (%)” value (Botrytis cinerea [1]; Inoculated Fruit, Spray, Day 5) was 0.0%, the “Gray Mold Incidence (%)” value (Botrytis cinerea [1]; Inoculated Fruit, Spray, Day 6) was 0.0% and the “Gray Mold Incidence (%)” value (Botrytis cinerea [1]; Inoculated Fruit, Sublimation, Day 0) was 0.0%. For the same molecule, the “Gray Mold Incidence (%)” value (Botrytis cinerea [1]; Inoculated Fruit, Sublimation, Day 1) was 0.0%, the “Gray Mold Incidence (%)” value (Botrytis cinerea [1]; Inoculated Fruit, Sublimation, Day 2) was 0.0% and the “Gray Mold Incidence (%)” value (Botrytis cinerea [1]; Inoculated Fruit, Sublimation, Day 3) was 0.0%. The “Gray Mold Incidence (%)” value (Botrytis cinerea [1]; Inoculated Fruit, Sublimation, Day 4) was 0.0%, the “Gray Mold Incidence (%)” value (Botrytis cinerea [1]; Inoculated Fruit, Sublimation, Day 5) was 0.9% and the “Gray Mold Incidence (%)” value (Botrytis cinerea [1]; Inoculated Fruit, Sublimation, Day 6) was 0.9%. The “Gray Mold Incidence (%)” value (Botrytis cinerea [1]; Uninoculated Fruit, Paint, Day 0) was 0.0%, the “Gray Mold Incidence (%)” value (Botrytis cinerea [1]; Uninoculated Fruit, Paint, Day 1) was 0.3% and the “Gray Mold Incidence (%)” value (Botrytis cinerea [1]; Uninoculated Fruit, Paint, Day 2) was 3.9%. For the same molecule, the “Gray Mold Incidence (%)” value (Botrytis cinerea [1]; Uninoculated Fruit, Paint, Day 3) was 5.1%, the “Gray Mold Incidence (%)” value (Botrytis cinerea [1]; Uninoculated Fruit, Paint, Day 4) was 7.4% and the “Gray Mold Incidence (%)” value (Botrytis cinerea [1]; Uninoculated Fruit, Paint, Day 5) was 17.0%. The “Gray Mold Incidence (%)” value (Botrytis cinerea [1]; Uninoculated Fruit, Paint, Day 6) was 21.7%, the “Gray Mold Incidence (%)” value (Botrytis cinerea [1]; Uninoculated Fruit, Spray, Day 0) was 0.0% and the “Gray Mold Incidence (%)” value (Botrytis cinerea [1]; Uninoculated Fruit, Spray, Day 1) was 0.6%. For the same molecule, the “Gray Mold Incidence (%)” value (Botrytis cinerea [1]; Uninoculated Fruit, Spray, Day 2) was 2.1%, the “Gray Mold Incidence (%)” value (Botrytis cinerea [1]; Uninoculated Fruit, Spray, Day 3) was 4.8% and the “Gray Mold Incidence (%)” value (Botrytis cinerea [1]; Uninoculated Fruit, Spray, Day 4) was 6.0%. The “Gray Mold Incidence (%)” value (Botrytis cinerea [1]; Uninoculated Fruit, Spray, Day 5) was 17.9%, the “Gray Mold Incidence (%)” value (Botrytis cinerea [1]; Uninoculated Fruit, Spray, Day 6) was 19.9% and the “Gray Mold Incidence (%)” value (Botrytis cinerea [1]; Uninoculated Fruit, Sublimation, Day 0) was 0.0%. The “Gray Mold Incidence (%)” value (Botrytis cinerea [1]; Uninoculated Fruit, Sublimation, Day 1) was 0.3%, the “Gray Mold Incidence (%)” value (Botrytis cinerea [1]; Uninoculated Fruit, Sublimation, Day 2) was 1.5% and the “Gray Mold Incidence (%)” value (Botrytis cinerea [1]; Uninoculated Fruit, Sublimation, Day 3) was 3.3%. The “Gray Mold Incidence (%)” value (Botrytis cinerea [1]; Uninoculated Fruit, Sublimation, Day 4) was 5.7%, the “Gray Mold Incidence (%)” value (Botrytis cinerea [1]; Uninoculated Fruit, Sublimation, Day 5) was 16.7% and the “Gray Mold Incidence (%)” value (Botrytis cinerea [1]; Uninoculated Fruit, Sublimation, Day 6) was 20.2%. The “Gray Mold Incidence (%)” value (Botrytis cinerea [2]; Inoculated Fruit, Day 0) was 0.0%, the “Gray Mold Severity (0-4)” value (Botrytis cinerea [2]; Inoculated Fruit, Day 0) was 0.0 and the “Gray Mold Incidence (%)” value (Botrytis cinerea [2]; Inoculated Fruit, Day 1) was 0.0%. The “Gray Mold Severity (0-4)” value (Botrytis cinerea [2]; Inoculated Fruit, Day 1) was 0.0, the “Gray Mold Incidence (%)” value (Botrytis cinerea [2]; Inoculated Fruit, Day 2) was 0.0% and the “Gray Mold Severity (0-4)” value (Botrytis cinerea [2]; Inoculated Fruit, Day 2) was 0.0. For the same molecule, the “Gray Mold Incidence (%)” value (Botrytis cinerea [2]; Inoculated Fruit, Day 3) was 0.0%, the “Gray Mold Severity (0-4)” value (Botrytis cinerea [2]; Inoculated Fruit, Day 3) was 0.0 and the “Gray Mold Incidence (%)” value (Botrytis cinerea [2]; Inoculated Fruit, Day 4) was 0.0%. For the same molecule, the “Gray Mold Severity (0-4)” value (Botrytis cinerea [2]; Inoculated Fruit, Day 4) was 0.0, the “Gray Mold Incidence (%)” value (Botrytis cinerea [2]; Inoculated Fruit, Day 5) was 16.7% and the “Gray Mold Severity (0-4)” value (Botrytis cinerea [2]; Inoculated Fruit, Day 5) was 0.1. The “Gray Mold Incidence (%)” value (Botrytis cinerea [2]; Inoculated Fruit, Day 6) was 18.8%, the “Gray Mold Severity (0-4)” value (Botrytis cinerea [2]; Inoculated Fruit, Day 6) was 0.2 and the “Gray Mold Incidence (%)” value (Botrytis cinerea [2]; Inoculated Fruit, Day 7) was 16.7%. The “Gray Mold Severity (0-4)” value (Botrytis cinerea [2]; Inoculated Fruit, Day 7) was 0.3, the “Gray Mold Incidence (%)” value (Botrytis cinerea [2]; Uninoculated Fruit, Day 0) was 0.0% and the “Gray Mold Severity (0-4)” value (Botrytis cinerea [2]; Uninoculated Fruit, Day 0) was 0.0. For the same molecule, the “Gray Mold Incidence (%)” value (Botrytis cinerea [2]; Uninoculated Fruit, Day 1) was 2.6%, the “Gray Mold Severity (0-4)” value (Botrytis cinerea [2]; Uninoculated Fruit, Day 1) was 0.4 and the “Gray Mold Incidence (%)” value (Botrytis cinerea [2]; Uninoculated Fruit, Day 2) was 0.1%. For the same molecule, the “Gray Mold Severity (0-4)” value (Botrytis cinerea [2]; Uninoculated Fruit, Day 2) was 1.0, the “Gray Mold Incidence (%)” value (Botrytis cinerea [2]; Uninoculated Fruit, Day 3) was 26.3% and the “Gray Mold Severity (0-4)” value (Botrytis cinerea [2]; Uninoculated Fruit, Day 3) was 1.0. The “Gray Mold Incidence (%)” value (Botrytis cinerea [2]; Uninoculated Fruit, Day 4) was 34.1%, the “Gray Mold Severity (0-4)” value (Botrytis cinerea [2]; Uninoculated Fruit, Day 4) was 1.0 and the “Gray Mold Incidence (%)” value (Botrytis cinerea [2]; Uninoculated Fruit, Day 5) was 40.0%. The “Gray Mold Severity (0-4)” value (Botrytis cinerea [2]; Uninoculated Fruit, Day 5) was 1.3, the “Gray Mold Incidence (%)” value (Botrytis cinerea [2]; Uninoculated Fruit, Day 6) was 43.3% and the “Gray Mold Severity (0-4)” value (Botrytis cinerea [2]; Uninoculated Fruit, Day 6) was 1.3. The “Gray Mold Incidence (%)” value (Botrytis cinerea [2]; Uninoculated Fruit, Day 7) was 54.1%, the “Gray Mold Severity (0-4)” value (Botrytis cinerea [2]; Uninoculated Fruit, Day 7) was 1.6 and the MIC (Alternaria alternata) was less than 0.6 mg/L. For the same molecule, the MIC (Botrytis cinerea [3]) was 2.2 mg/L (≈ 14.5 µM), the MIC (Glomerella cingulata) was less than 0.6 mg/L and the MIC (Monilinia fructicola) was less than 0.6 mg/L. For the same molecule, the MIC (Penicillium expansum) was 2.2 mg/L (≈ 14.5 µM).
